Source: PubChem BioAssay AID248 (DTP/NCI, 2004)
Several values for one entry are separate records, joined by “and”; a condition that tells them apart may be missing. Equal entries are not always repeated. Inconclusive results and toxic doses are left out. Rule as the data show it: active = T/C of 150% or more; inactive = T/C below 125%.

Tested on: L1210 leukemia ip in BDF1 mice, survival T/C
Assay: NCI In Vivo Anticancer Drug Screen. Data for tumor model L1210 Leukemia (intraperitoneal) in B6D2F1 (BDF1) mice
Conditions: endpoint: mean survival time, higher = longer survival
Outline: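 Ratio derived from survival: compound-dosed mice over vehicle-dosed mice, all bearing a transplantable tumor.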

[1] = dose: 100.0 mg/kg/injection, schedule: Q01DX001 (ip), vehicle: saline
[2] = dose: 200.0 mg/kg/injection, schedule: Q01DX001 (ip), vehicle: saline
[3] = dose: 400.0 mg/kg/injection, schedule: Q01DX001 (ip), vehicle: saline
[4] = dose: 100.0 mg/kg/injection, schedule: Q01DX009 (ip), vehicle: Klucel (hydroxypropylcellulose) (HPC)
[5] = dose: 100.0 mg/kg/injection, schedule: Q04DX003 (ip), vehicle: Klucel (hydroxypropylcellulose) (HPC)
[6] = dose: 200.0 mg/kg/injection, schedule: Q01DX009 (ip), vehicle: Klucel (hydroxypropylcellulose) (HPC)
[7] = dose: 200.0 mg/kg/injection, schedule: Q04DX003 (ip), vehicle: Klucel (hydroxypropylcellulose) (HPC)
[8] = dose: 400.0 mg/kg/injection, schedule: Q04DX003 (ip), vehicle: Klucel (hydroxypropylcellulose) (HPC)
[9] = dose: 100.0 mg/kg/injection, schedule: Q04DX003 (ip), vehicle: saline
[10] = dose: 200.0 mg/kg/injection, schedule: Q04DX003 (ip), vehicle: saline
[11] = dose: 400.0 mg/kg/injection, schedule: Q04DX003 (ip), vehicle: saline
[12] = dose: 100.0 mg/kg/injection, schedule: Q04DX003 (ip), vehicle: saline with Tween-80
[13] = dose: 200.0 mg/kg/injection, schedule: Q04DX003 (ip), vehicle: saline with Tween-80
[14] = dose: 400.0 mg/kg/injection, schedule: Q04DX003 (ip), vehicle: saline with Tween-80
[15] = dose: 100.0 mg/kg/injection, schedule: Q01DX009 (ip), vehicle: saline with Tween-80
[16] = dose: 50.0 mg/kg/injection, schedule: Q01DX009 (ip), vehicle: saline with Tween-80
[17] = dose: 200.0 mg/kg/injection, schedule: Q01DX009 (ip), vehicle: saline with Tween-80
[18] = dose: 100.0 mg/kg/injection, schedule: Q04DX003 (ip), vehicle: saline sonified
[19] = dose: 200.0 mg/kg/injection, schedule: Q04DX003 (ip), vehicle: saline sonified
[20] = dose: 400.0 mg/kg/injection, schedule: Q04DX003 (ip), vehicle: saline sonified

Measured: T/C

CC1(C)OC(N)=C(C(N)=O)C1c1ccc(Cl)cc1 (configuration not stated)
inactive: [1] 97 % of control | [2] 95 % of control | [3] 95 % of control

N#CC(c1ccccc1)c1ccc(F)cc1 (configuration not stated)
inactive: [4] 104 % of control | [5] 100 % of control | [6] 97 % of control | [7] 96 % of control | dose: 400.0 mg/kg/injection, schedule: Q01DX009 (ip), vehicle: Klucel (hydroxypropylcellulose) (HPC) 98 % of control | [8] 98 % of control

O=C(O)CCC(=O)Nc1cccc(Oc2ccc([N+](=O)[O-])cc2[N+](=O)[O-])c1
inactive: [9] 106 % of control | [10] 98 % of control | [11] 97 % of control

O=C(Nc1cc([N+](=O)[O-])ccc1F)N(C1CCCCC1)C1CCCCC1
inactive: [5] 87 % of control | [7] 96 % of control | [8] 104 % of control

CCCCCCCCCC(CCCCCCCCC)NCC(C)OC(=O)c1ccc([N+](=O)[O-])cc1 (configuration not stated)
inactive: dose: 75.0 mg/kg/injection, schedule: Q01DX001 (ip), vehicle: acetone 95 % of control | dose: 150.0 mg/kg/injection, schedule: Q01DX001 (ip), vehicle: acetone 95 % of control | dose: 300.0 mg/kg/injection, schedule: Q01DX001 (ip), vehicle: acetone 94 % of control

O=C1C=CC(=Nc2ccc3c(c2)C(Br)c2ccccc2-3)O1 (configuration not stated)
inactive: dose: 3.12 mg/kg/injection, schedule: Q04DX003 (ip), vehicle: saline 100 % of control | dose: 4.5 mg/kg/injection, schedule: Q01DX009 (ip), vehicle: saline 102 % of control | dose: 6.25 mg/kg/injection, schedule: Q04DX003 (ip), vehicle: saline 105 % of control | dose: 9.0 mg/kg/injection, schedule: Q01DX009 (ip), vehicle: saline 95 % of control | dose: 12.5 mg/kg/injection, schedule: Q01DX001 (ip), vehicle: acetone 100 % of control | dose: 12.5 mg/kg/injection, schedule: Q04DX003 (ip), vehicle: saline 103 % of control | dose: 18.0 mg/kg/injection, schedule: Q04DX003 (ip), vehicle: saline 98 % of control

COC1OC(CN=[N+]=[N-])C(N=[N+]=[N-])C(OS(C)(=O)=O)C1OS(C)(=O)=O (configuration not stated)
inactive: [12] 92 % of control | [13] 90 % of control | [14] 94 % of control

Nc1cc2c3ccccc3ccc2c2ccccc12
inactive: dose: 67.0 mg/kg/injection, schedule: Q01DX009 (ip), vehicle: saline with Tween-80 105 % of control | [15] 105 % of control | dose: 150.0 mg/kg/injection, schedule: Q01DX009 (ip), vehicle: saline with Tween-80 96 % of control | dose: 225.0 mg/kg/injection, schedule: Q01DX009 (ip), vehicle: saline with Tween-80 97 % of control

CC(=O)c1cc2ccccc2oc1=O
inactive: dose: 100.0 mg/kg/injection, schedule: Q01DX009 (ip), vehicle: gum acacia 117 % of control | dose: 200.0 mg/kg/injection, schedule: Q01DX009 (ip), vehicle: gum acacia 108 % of control | dose: 400.0 mg/kg/injection, schedule: Q01DX009 (ip), vehicle: gum acacia 107 % of control

O=C1NC(=S)SC1C(Cc1ccccc1)Cc1ccccc1 (configuration not stated)
inactive: [1] 97 % of control | [2] 97 % of control | [3] 101 % of control

O=S1(=O)C(c2ccccc2)=C1c1ccccc1
inactive: dose: 12.5 mg/kg/injection, schedule: Q01DX001 (ip), vehicle: other 100 % of control | dose: 12.5 mg/kg/injection, schedule: Q01DX009 (ip), vehicle: other 95 % of control | dose: 25.0 mg/kg/injection, schedule: Q01DX001 (ip), vehicle: other 94 % of control and 100 % of control | dose: 25.0 mg/kg/injection, schedule: Q01DX009 (ip), vehicle: other 101 % of control | dose: 50.0 mg/kg/injection, schedule: Q01DX001 (ip), vehicle: other 97 % of control and 101 % of control | dose: 50.0 mg/kg/injection, schedule: Q01DX009 (ip), vehicle: other 86 % of control

CCOC(=O)C(CNc1cccc2ccncc12)C(=O)OCC
inactive: [16] 109 % of control | [15] 94 % of control | [17] 115 % of control

CCN(CC)CCCOC(=O)N(Cc1ccc(Cl)cc1)C1CC1
inactive: dose: 25.0 mg/kg/injection, schedule: Q01DX009 (ip), vehicle: saline with Tween-80 100 % of control | [16] 93 % of control | [12] 102 % of control

Nc1ccc2c(c1)C1(NC(=O)NC1=O)c1cc(N)ccc1-2
inactive: dose: 50.0 mg/kg/injection, schedule: Q01DX001 (ip), vehicle: carboxymethylcellulose (CMC) 101 % of control | dose: 100.0 mg/kg/injection, schedule: Q01DX001 (ip), vehicle: carboxymethylcellulose (CMC) 101 % of control | dose: 200.0 mg/kg/injection, schedule: Q01DX001 (ip), vehicle: carboxymethylcellulose (CMC) 109 % of control | dose: 400.0 mg/kg/injection, schedule: Q01DX001 (ip), vehicle: carboxymethylcellulose (CMC) 103 % of control

O=C(C[n+]1cccc2ccccc21)c1ccc([N+](=O)[O-])cc1
inactive: dose: 100.0 mg/kg/injection, schedule: Q04DX002 (ip), vehicle: saline with Tween-80 109 % of control

CC(=O)OCC1OCC(OC(C)=O)C(OC(C)=O)C1OC(C)=O (configuration not stated)
inactive: [12] 94 % of control | [13] 98 % of control | [14] 98 % of control

Cc1c2c(c(C)c3ccncc13)S(=O)(=O)c1ccccc1-2
inactive: dose: 75.0 mg/kg/injection, schedule: Q01DX001 (ip), vehicle: other 95 % of control | dose: 150.0 mg/kg/injection, schedule: Q01DX001 (ip), vehicle: other 93 % of control | dose: 300.0 mg/kg/injection, schedule: Q01DX001 (ip), vehicle: other 93 % of control

Nc1[nH]c(=S)[nH]c(=O)c1NC(=O)C1CC1
inactive: [9] 96 % of control | [10] 105 % of control | [11] 102 % of control

CCOC(=O)c1c(-c2ccccc2)cn2c1OC(C)CC2(C)C (configuration not stated)
inactive: dose: 100.0 mg/kg/injection, schedule: Q01DX001 (ip), vehicle: Klucel (hydroxypropylcellulose) (HPC) 105 % of control | dose: 200.0 mg/kg/injection, schedule: Q01DX001 (ip), vehicle: Klucel (hydroxypropylcellulose) (HPC) 100 % of control | dose: 400.0 mg/kg/injection, schedule: Q01DX001 (ip), vehicle: Klucel (hydroxypropylcellulose) (HPC) 93 % of control

CCN(CC)C(=O)Oc1ccc(OC)cc1
inactive: [15] 109 % of control | [17] 96 % of control

CCCCCCCCCCCCCCC(S(=O)(=O)CC)S(=O)(=O)CC
inactive: [5] 95 % of control | [7] 100 % of control | [8] 90 % of control

NCCc1cnc(N=Nc2ccc(C(=O)O)cc2)[nH]1
inactive: dose: 50.0 mg/kg/injection, schedule: Q01DX009 (ip), vehicle: Klucel (hydroxypropylcellulose) (HPC) 89 % of control | [4] 89 % of control | [6] 87 % of control

Cc1cc(N=Nc2ccccc2)c2cccnc2c1N
inactive: dose: 50.0 mg/kg/injection, schedule: Q04DX003 (ip), vehicle: DMSO 91 % of control | dose: 100.0 mg/kg/injection, schedule: Q04DX003 (ip), vehicle: DMSO 97 % of control

Cc1cc(Cl)ccc1NS(=O)(=O)c1cccc([N+](=O)[O-])c1
inactive: [15] 90 % of control | [17] 90 % of control | dose: 400.0 mg/kg/injection, schedule: Q01DX009 (ip), vehicle: saline with Tween-80 87 % of control

CC1CCc2cc3ccccc3nc21 (configuration not stated)
inactive: [16] 104 % of control | [15] 104 % of control | [17] 112 % of control

CCCCOB(/C=C/Sc1ccccc1)OCCCC
inactive: dose: 100.0 mg/kg/injection, schedule: Q01DX009 (ip), vehicle: saline sonified 89 % of control | [18] 101 % of control | dose: 200.0 mg/kg/injection, schedule: Q01DX009 (ip), vehicle: saline sonified 87 % of control | [19] 103 % of control | dose: 400.0 mg/kg/injection, schedule: Q01DX009 (ip), vehicle: saline sonified 100 % of control | [20] 95 % of control

Nc1cc2ccccc2c(O)c1O
inactive: [18] 93 % of control | [19] 96 % of control | [20] 90 % of control
